Patent publication US8796303B2, “Imidazo[2,1-G][1,7]naphthyridines for treating respiratory syncytial virus infections” (Biota Scientific Management Pty Ltd., priority 2010, dated 2014)
≈ marks a conversion by molar mass, not a printed value. Like-named read-outs stand apart in the source and are kept apart here.

Legend:
[1] = Aqueous solubility by laser nephelometry; format: physicochemical; settings: for solubility at 30 min: kinetic from dmso stock, 1% DMSO, 30 minute incubation at 25° C., range 1.6-100; for solubility compared with the 3-substituted isoxazol-4-yls of the present invention: comparative solubility
Method: Test compounds prepared in DMSO were screened in duplicate over a range of concentrations (1.6-100 ug/mL) in different aqueous media (for example pH2 or pH6.5 buffers which are relevant to the stomach and upper regions of the small intestine). Test compounds were serially diluted in 100% DMSO ranging from 10-0.16 mg/mL. These diluted compounds were then added to test plates (UV Star Griener 96 well plates) containing assay buffers with a further 1:100 dilution keeping a constant 1% DMSO concentration across the plate.

[2] = test system: RSV A2; test: RSV antiviral CPE assay in HEp2 cells (MTT); format: cell-based, respiratory syncytial virus; settings: for EC50: human respiratory syncytial virus, HEp-2, 120 h, HEp2 cells, RSV A2 moi ~0.01, 5 days, CPE by MTT; for activity compared with the 3-substituted isoxazol-4-yls of the present invention: comparative RSV activity
Method: Compounds of the invention were tested for their antiviral activity against respiratory syncytial virus. Cytopathic effect (CPE) assays were performed essentially as described in the literature (see for example Watanabe et al, 1994, J. Virological Methods, 48:257). Serial dilutions of the test compounds were made in 96 well plates. HEp2 cells (1.0×10^4 cells/well) were infected with RSV at a low multiplicity of infection (e.g. RSV A2 at an moi of ˜0.01) and added to plates to assess antiviral activity. Uninfected HEp2 cells were used to assess compound cytotoxicity. Assays were incubated for 5 days at 37° C. in a 5% CO2 atmosphere. The extent of CPE was determined via metabolism of the vital dye 3-(4,5-dimethylthiaxol-2-yl)-2,5-diphenyltetrazolium bromide (MTT). MTT (1 mg/ml) was added to each well and plates incubated for 2 hours incubation at 37° C. Wells were aspirated, iso-propanol (200 μL) was added and absorbance values read at 540/650 nm. Compound concentrations that inhibited CPE by 50% (EC50) and developed cytotoxicity (CC50) were calculated using non-linear regression analysis. The CC50 values of the compounds tested were determined to be >5000 nM.

[3] = pH 2, simulated gastric fluid, pH2 buffer, read-out: Solubility at pH2
[4] = pH 6.5, aqueous buffer, pH6.5 buffer, read-out: Solubility at pH6.5

solubility at 30 min [1, 3] [µg/mL] | solubility at 30 min [1, 4] [µg/mL] | EC50 [2] [nM] | solubility compared with the 3-substituted isoxazol-4-yls of the present invention [1] | Compound | activity compared with the 3-substituted isoxazol-4-yls of the present invention [2] | drop in activity against the 3-substituted isoxazol-4-yl compound of example 4 ([2]; RSV A2 antiviral activity, compared with example 4)
50 to 100 (≈ 122 to 244 µM) | > 100 | 5.2 | – | Cc1nocc1C(=O)N1CCN2C(=O)c3nccnc3C[C@]12c1ccc(Cl)cc1 (single isomer, unassigned) [Compound 1A] | – | –
– | – | 5000 | – | Cc1nocc1C(=O)N1CCN2C(=O)c3ncccc3C[C@@]12c1ccc(Cl)cc1 (single isomer, unassigned) [Compound 2B] | – | –
> 100 | > 100 | 16.3 | – | Cc1nocc1C(=O)N1CCN2C(=O)c3ncccc3C[C@]12c1ccc(F)cc1 (single isomer, unassigned) [Compound 4A] | – | –
> 100 | > 100 | 12.4 | – | Cc1nocc1C(=O)N1CCN2C(=O)c3nccnc3C[C@]12c1ccc(F)cc1 (single isomer, unassigned) [Compound 5A] | – | –
50 to 100 (≈ 123 to 246 µM) | > 100 | 7.7 | – | Cc1cc([C@]23Cc4cccnc4C(=O)N2CCN3C(=O)c2conc2C)ccc1F (single isomer, unassigned) [Compound 6A] | – | –
50 to 100 (≈ 122 to 244 µM) | 50 to 100 (≈ 122 to 244 µM) | 6.3 | – | Cc1nocc1C(=O)N1CCN2C(=O)c3nccnc3CC12c1ccc(Cl)cc1 (stereo not drawn) [Compound 1, 5a-(4-chlorophenyl)-6-[(3-methyl-1,2-oxazol-4-yl)carbonyl]-5a,6,7,8-tetrahydroimidazo[1′,2′:1,6]pyrido[3,4-b]pyrazin-10(5H)-one] | – | –
3.1 to 6.3 (≈ 7.87 to 16 µM) | 3.1 to 6.3 (≈ 7.87 to 16 µM) | 1710 | less soluble | O=C(c1ccno1)N1CCN2C(=O)c3ccccc3CC12c1ccc(Cl)cc1 (stereo not drawn) [Compound 1-025, reference compound] | less active | –
< 1.6 | < 1.6 | 175 | less soluble | O=C(c1ccon1)N1CCN2C(=O)c3cccc(F)c3CC12c1ccc(Cl)cc1 (stereo not drawn) [Compound 1-086, reference compound] | less active | –
3.1 to 6.3 (≈ 7.53 to 15.3 µM) | 3.1 to 6.3 (≈ 7.53 to 15.3 µM) | 267 | less soluble | O=C(c1ccno1)N1CCN2C(=O)c3cccc(F)c3CC12c1ccc(Cl)cc1 (stereo not drawn) [Compound 1-088, reference compound] | less active | –
– | – | 560 | less soluble | O=C(c1ccno1)N1CCN2C(=O)c3cccnc3CC12c1ccc(Cl)cc1 (stereo not drawn) [Compound 1-100, reference compound] | less active | –
> 100 | > 100 | 83.1 | – | COc1ccc(C23Cc4cccnc4C(=O)N2CCN3C(=O)c2conc2C)cc1 (stereo not drawn) [Compound 3, 10a-(4-methoxyphenyl)-1-[(3-methyl-1,2-oxazol-4-yl)carbonyl]-2,3,10,10a-tetrahydroimidazo[2,1-g][1,7]naphthyridin-5(1H)-one] | – | –
> 100 | > 100 | 27.5 | – | Cc1nocc1C(=O)N1CCN2C(=O)c3ncccc3CC12c1ccc(F)cc1 (stereo not drawn) [Compound 4, 10a-(4-fluorophenyl)-1-[(3-methyl-1,2-oxazol-4-yl)carbonyl]-2,3,10,10a-tetrahydroimidazo[2,1-g][1,7]naphthyridin-5(1H)-one] | – | –
> 100 | > 100 | 27.6 | – | Cc1nocc1C(=O)N1CCN2C(=O)c3nccnc3CC12c1ccc(F)cc1 (stereo not drawn) [Compound 5, 5a-(4-fluorophenyl)-6-[(3-methyl-1,2-oxazol-4-yl)carbonyl]-5a,6,7,8-tetrahydroimidazo[1′,2′:1,6]pyrido[3,4-b]pyrazin-10(5H)-one] | – | –
25 to 50 (≈ 61.5 to 123 µM) | 50 to 100 (≈ 123 to 246 µM) | 6.4 | – | Cc1cc(C23Cc4cccnc4C(=O)N2CCN3C(=O)c2conc2C)ccc1F (stereo not drawn) [Compound 6, 10a-(4-fluoro-3-methylphenyl)-1-[(3-methyl-1,2-oxazol-4-yl)carbonyl]-2,3,10,10a-tetrahydroimidazo[2,1-g][1,7]naphthyridin-5(1H)-one] | – | –
25 to 50 (≈ 60.9 to 122 µM) | 50 to 100 (≈ 122 to 244 µM) | 35 | – | Cc1nocc1C(=O)N1CCN2C(=O)c3ncccc3CC12c1ccc(F)c(F)c1 (stereo not drawn) [Compound 7, 10a-(3,4-difluorophenyl)-1-[(3-methyl-1,2-oxazol-4-yl)carbonyl]-2,3,10,10a-tetrahydroimidazo[2,1-g][1,7]naphthyridin-5(1H)-one] | – | –
> 100 | > 100 | 30.5 | – | Cc1nocc1C(=O)N1CCN2C(=O)c3nccnc3CC12c1ccc(F)c(F)c1 (stereo not drawn) [Compound 8, 5a-(3,4-difluorophenyl)-6-[(3-methyl-1,2-oxazol-4-yl)carbonyl]-5a,6,7,8-tetrahydroimidazo[1′,2′:1,6]pyrido[3,4-b]pyrazin-10(5H)-one] | – | –
50 to 100 (≈ 123 to 245 µM) | > 100 | 9 | – | Cc1cc(C23Cc4nccnc4C(=O)N2CCN3C(=O)c2conc2C)ccc1F (stereo not drawn) [Compound 9, 5a-(4-fluoro-3-methylphenyl)-6-[(3-methyl-1,2-oxazol-4-yl)carbonyl]-5a,6,7,8-tetrahydroimidazo[1′,2′:1,6]pyrido[3,4-b]pyrazin-10(5H)-one] | – | –
> 100 | > 100 | 36.9 | – | Cc1nocc1C(=O)N1CCN2C(=O)c3ncccc3CC12c1ccccc1Cl (stereo not drawn) [Compound 10, 10a-(2-chlorophenyl)-1-[(3-methyl-1,2-oxazol-4-yl)carbonyl]-2,3,10,10a-tetrahydroimidazo[2,1-g][1,7]naphthyridin-5(1H)-one] | – | –
> 100 | > 100 | 70 | – | Cc1nocc1C(=O)N1CCN2C(=O)c3ncccc3CC12C1CCCCC1 (stereo not drawn) [Compound 11, 10a-cyclohexyl-1-[(3-methyl-1,2-oxazol-4-yl)carbonyl]-2,3,10,10a-tetrahydroimidazo[2,1-g][1,7]naphthyridin-5(1H)-one] | – | –
50 to 100 (≈ 120 to 240 µM) | > 100 | 64.4 | – | Cc1nocc1C(=O)N1CCN2C(=O)c3ncccc3CC12C1CCC(F)(F)CC1 (stereo not drawn) [Compound 12, 10a-(4,4-difluorocyclohexyl)-1-[(3-methyl-1,2-oxazol-4-yl)carbonyl]-2,3,10,10a-tetrahydroimidazo[2,1-g][1,7]naphthyridin-5(1H)-one] | – | –
50 to 100 (≈ 108 to 216 µM) | 50 to 100 (≈ 108 to 216 µM) | 7 | – | O=C(c1conc1C(F)(F)F)N1CCN2C(=O)c3ncccc3CC12c1ccc(Cl)cc1 (stereo not drawn) [Compound 13, 10a-(4-chlorophenyl)-1-{[3-(trifluoromethyl)-1,2-oxazol-4-yl]carbonyl}-2,3,10,10a-tetrahydroimidazo[2,1-g][1,7]naphthyridin-5(1H)-one] | – | –
> 100 | 50 to 100 (≈ 120 to 240 µM) | 13.6 | – | Cc1nocc1C(=O)N1CCN2C(=O)c3ncccc3CC12c1ccc2c(c1)CCO2 (stereo not drawn) [Compound 14, 10a-(2,3-dihydro-1-benzofuran-5-yl)-1-[(3-methyl-1,2-oxazol-4-yl)carbonyl]-2,3,10,10a-tetrahydroimidazo[2,1-g][1,7]naphthyridin-5(1H)-one] | – | –
– | – | 276 | – | Cc1oncc1C(=O)N1CCN2C(=O)c3ncccc3CC12c1ccc(F)cc1 (stereo not drawn) [Compound A, reference compound] | – | ten-fold drop in activity
